According to ChEMBL document CHEMBL4507273 (2021):

Tests used:
[1] = target: Insulin receptor-related protein (Homo sapiens) (UniProt P14616); settings: Compound concentration 1000.0 nM
[2] = target: Cyclin-dependent kinase-like 1 (Homo sapiens) (UniProt Q00532); settings: Compound concentration 1000.0 nM
[3] = target: 5-hydroxytryptamine receptor 1E (Homo sapiens) (UniProt P28566); settings: Compound concentration 10.0 uM
[4] = target: Misshapen-like kinase 1 (Homo sapiens) (UniProt Q8N4C8); settings: Compound concentration 1000.0 nM
[5] = target: STE20/SPS1-related proline-alanine-rich protein kinase (Homo sapiens) (UniProt Q9UEW8); settings: Compound concentration 1000.0 nM
[6] = target: Leucine-rich repeat serine/threonine-protein kinase 2 (Homo sapiens) (UniProt Q5S007); settings: Compound concentration 1000.0 nM
[7] = system: Epidermal growth factor receptor (Homo sapiens), P00533 [G719C]; settings: Compound concentration 1000.0 nM
[8] = target: Receptor tyrosine-protein kinase erbB-3 (Homo sapiens) (UniProt P21860); settings: Compound concentration 1000.0 nM
[9] = target: Myosin-IIIb (Homo sapiens) (UniProt Q8WXR4); settings: Compound concentration 1000.0 nM
[10] = target: Mitogen-activated protein kinase kinase kinase 11 (Homo sapiens) (UniProt Q16584); settings: Compound concentration 1000.0 nM
[11] = target: Protein kinase C iota type (Homo sapiens) (UniProt P41743); settings: Compound concentration 1000.0 nM
[12] = target: Serine/threonine-protein kinase ULK3 (Homo sapiens) (UniProt Q6PHR2); settings: Compound concentration 1000.0 nM
[13] = target: Serine/threonine-protein kinase STK11 (Homo sapiens) (UniProt Q15831); settings: Compound concentration 1000.0 nM
[14] = target: Homeodomain-interacting protein kinase 4 (Homo sapiens) (UniProt Q8NE63); settings: Compound concentration 1000.0 nM
[15] = target: Dual specificity mitogen-activated protein kinase kinase 6 (Homo sapiens) (UniProt P52564); settings: Compound concentration 1000.0 nM
[16] = target: Tyrosine-protein kinase Yes (Homo sapiens) (UniProt P07947); settings: Compound concentration 1000.0 nM
[17] = target: Casein kinase I isoform alpha (Homo sapiens) (UniProt P48729); settings: Compound concentration 1000.0 nM
[18] = target: Serine/threonine-protein kinase TNNI3K (Homo sapiens) (UniProt Q59H18); settings: Compound concentration 1000.0 nM
[19] = target: Cyclin-dependent kinase 11B (Homo sapiens) (UniProt P21127); settings: Compound concentration 1000.0 nM
[20] = target: Mitogen-activated protein kinase 6 (Homo sapiens) (UniProt Q16659); settings: Compound concentration 1000.0 nM
[21] = target: Serine/threonine-protein kinase SIK1 (Homo sapiens) (UniProt P57059); settings: Compound concentration 1000.0 nM
[22] = target: Mitogen-activated protein kinase 14 (Homo sapiens) (UniProt Q16539); settings: Compound concentration 1000.0 nM
[23] = target: Uncharacterized serine/threonine-protein kinase SBK3 (Homo sapiens) (UniProt P0C264); settings: Compound concentration 1000.0 nM
[24] = target: T1, 5-hydroxytryptamine receptor 2C (Homo sapiens) (UniProt P28335); settings: Compound concentration 10.0 uM
T1 sequence (whole entry): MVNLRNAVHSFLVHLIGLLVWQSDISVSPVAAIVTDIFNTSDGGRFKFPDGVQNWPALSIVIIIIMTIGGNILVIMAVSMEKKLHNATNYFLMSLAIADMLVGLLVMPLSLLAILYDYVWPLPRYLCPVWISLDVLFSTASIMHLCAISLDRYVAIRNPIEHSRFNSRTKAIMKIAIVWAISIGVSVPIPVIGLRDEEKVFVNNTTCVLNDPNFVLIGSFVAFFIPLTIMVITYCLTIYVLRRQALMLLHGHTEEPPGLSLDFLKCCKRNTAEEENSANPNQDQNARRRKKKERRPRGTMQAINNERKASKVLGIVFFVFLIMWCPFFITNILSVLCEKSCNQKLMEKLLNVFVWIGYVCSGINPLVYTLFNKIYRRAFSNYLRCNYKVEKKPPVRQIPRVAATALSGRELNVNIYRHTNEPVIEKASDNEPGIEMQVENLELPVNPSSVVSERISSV

[25] = target: Serine/threonine-protein kinase SBK1 (Homo sapiens) (UniProt Q52WX2); settings: Compound concentration 1000.0 nM
[26] = target: Dual serine/threonine and tyrosine protein kinase (Homo sapiens) (UniProt Q6XUX3); settings: Compound concentration 1000.0 nM
[27] = target: Calcium/calmodulin-dependent protein kinase kinase 1 (Homo sapiens) (UniProt Q8N5S9); settings: Compound concentration 1000.0 nM
[28] = target: Serine/threonine-protein kinase VRK2 (Homo sapiens) (UniProt Q86Y07); settings: Compound concentration 1000.0 nM
[29] = target: Activin receptor type-1B (Homo sapiens) (UniProt P36896); settings: Compound concentration 1000.0 nM
[30] = target: Serine/threonine-protein kinase D1 (Homo sapiens) (UniProt Q15139); settings: Compound concentration 1000.0 nM
[31] = target: Serine/threonine-protein kinase Chk2 (Homo sapiens) (UniProt O96017); settings: Compound concentration 1000.0 nM
[32] = target: Ribosomal protein S6 kinase alpha-4 (Homo sapiens) (UniProt O75676); settings: Compound concentration 1000.0 nM
[33] = target: Glycogen synthase kinase-3 alpha (Homo sapiens) (UniProt P49840); settings: Compound concentration 1000.0 nM
[34] = target: Dual specificity protein kinase TTK (Homo sapiens) (UniProt P33981); settings: Compound concentration 1000.0 nM
[35] = target: Serine/threonine-protein kinase ULK2 (Homo sapiens) (UniProt Q8IYT8); settings: Compound concentration 1000.0 nM
[36] = target: Megakaryocyte-associated tyrosine-protein kinase (Homo sapiens) (UniProt P42679); settings: Compound concentration 1000.0 nM
[37] = target: Phosphatidylinositol 4-phosphate 3-kinase C2 domain-containing subunit beta (Homo sapiens) (UniProt O00750); settings: Compound concentration 1000.0 nM
[38] = target: Beta-3 adrenergic receptor (Homo sapiens) (UniProt P13945); settings: Compound concentration 10.0 uM
[39] = target: Serine/threonine-protein kinase Nek3 (Homo sapiens) (UniProt P51956); settings: Compound concentration 1000.0 nM

Chain of Misshapen-like kinase 1 (Homo sapiens) (Q8N4C8 whole entry, looked up): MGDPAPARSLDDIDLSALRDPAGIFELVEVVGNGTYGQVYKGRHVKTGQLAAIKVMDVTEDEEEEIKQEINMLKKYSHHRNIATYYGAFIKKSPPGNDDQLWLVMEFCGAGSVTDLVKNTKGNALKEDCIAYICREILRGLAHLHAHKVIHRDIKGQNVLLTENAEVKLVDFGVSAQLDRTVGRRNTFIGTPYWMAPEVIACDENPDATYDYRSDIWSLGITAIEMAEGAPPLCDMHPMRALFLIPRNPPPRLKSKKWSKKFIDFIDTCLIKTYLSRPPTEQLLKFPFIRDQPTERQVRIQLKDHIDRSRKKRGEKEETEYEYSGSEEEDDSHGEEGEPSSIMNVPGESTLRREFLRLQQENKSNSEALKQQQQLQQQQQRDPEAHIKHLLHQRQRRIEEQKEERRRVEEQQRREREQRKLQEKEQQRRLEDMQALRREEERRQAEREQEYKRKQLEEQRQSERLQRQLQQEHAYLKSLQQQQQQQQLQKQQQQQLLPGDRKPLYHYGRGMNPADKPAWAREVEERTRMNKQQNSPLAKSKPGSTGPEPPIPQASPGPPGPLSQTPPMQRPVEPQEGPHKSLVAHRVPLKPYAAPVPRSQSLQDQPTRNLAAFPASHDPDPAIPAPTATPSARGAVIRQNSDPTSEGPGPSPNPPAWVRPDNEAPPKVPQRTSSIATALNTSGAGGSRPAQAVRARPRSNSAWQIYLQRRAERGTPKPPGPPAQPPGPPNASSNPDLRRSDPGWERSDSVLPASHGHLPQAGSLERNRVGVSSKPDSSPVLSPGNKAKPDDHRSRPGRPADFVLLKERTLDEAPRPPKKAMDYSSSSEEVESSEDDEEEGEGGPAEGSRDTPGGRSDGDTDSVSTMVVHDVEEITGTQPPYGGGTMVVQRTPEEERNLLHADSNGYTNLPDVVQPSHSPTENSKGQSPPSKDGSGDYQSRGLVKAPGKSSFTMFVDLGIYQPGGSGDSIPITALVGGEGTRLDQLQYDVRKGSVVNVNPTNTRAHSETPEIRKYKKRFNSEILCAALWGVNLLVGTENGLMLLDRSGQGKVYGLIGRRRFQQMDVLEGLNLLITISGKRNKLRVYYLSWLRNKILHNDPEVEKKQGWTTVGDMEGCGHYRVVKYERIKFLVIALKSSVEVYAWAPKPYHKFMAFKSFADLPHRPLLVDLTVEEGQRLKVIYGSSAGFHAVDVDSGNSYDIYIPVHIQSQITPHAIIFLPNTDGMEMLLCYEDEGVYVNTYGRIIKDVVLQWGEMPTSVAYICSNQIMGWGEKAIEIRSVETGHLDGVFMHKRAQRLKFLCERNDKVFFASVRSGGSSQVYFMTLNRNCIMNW
Chain of Serine/threonine-protein kinase SIK1 (Homo sapiens) (P57059 whole entry): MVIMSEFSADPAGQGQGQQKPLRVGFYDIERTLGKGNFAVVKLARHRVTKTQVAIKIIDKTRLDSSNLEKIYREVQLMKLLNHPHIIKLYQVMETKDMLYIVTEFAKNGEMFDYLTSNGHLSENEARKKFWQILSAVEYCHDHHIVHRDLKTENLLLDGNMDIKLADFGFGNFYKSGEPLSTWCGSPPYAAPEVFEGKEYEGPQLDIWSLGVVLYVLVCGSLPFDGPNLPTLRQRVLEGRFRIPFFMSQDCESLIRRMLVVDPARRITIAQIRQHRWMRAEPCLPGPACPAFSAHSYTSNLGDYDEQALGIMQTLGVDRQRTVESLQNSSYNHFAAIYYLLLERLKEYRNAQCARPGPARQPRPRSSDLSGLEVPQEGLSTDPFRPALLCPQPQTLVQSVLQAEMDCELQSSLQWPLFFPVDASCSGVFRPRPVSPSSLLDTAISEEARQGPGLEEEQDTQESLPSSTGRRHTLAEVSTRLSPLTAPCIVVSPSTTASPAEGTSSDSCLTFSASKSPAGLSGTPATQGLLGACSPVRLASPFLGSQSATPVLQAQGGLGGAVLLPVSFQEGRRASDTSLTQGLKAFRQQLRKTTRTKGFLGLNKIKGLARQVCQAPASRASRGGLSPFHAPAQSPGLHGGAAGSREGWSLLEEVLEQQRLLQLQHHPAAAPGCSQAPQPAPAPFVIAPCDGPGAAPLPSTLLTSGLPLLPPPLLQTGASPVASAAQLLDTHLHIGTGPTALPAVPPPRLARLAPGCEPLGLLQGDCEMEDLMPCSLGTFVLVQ
Chain of Glycogen synthase kinase-3 alpha (Homo sapiens) (P49840 2-483 limits assumed): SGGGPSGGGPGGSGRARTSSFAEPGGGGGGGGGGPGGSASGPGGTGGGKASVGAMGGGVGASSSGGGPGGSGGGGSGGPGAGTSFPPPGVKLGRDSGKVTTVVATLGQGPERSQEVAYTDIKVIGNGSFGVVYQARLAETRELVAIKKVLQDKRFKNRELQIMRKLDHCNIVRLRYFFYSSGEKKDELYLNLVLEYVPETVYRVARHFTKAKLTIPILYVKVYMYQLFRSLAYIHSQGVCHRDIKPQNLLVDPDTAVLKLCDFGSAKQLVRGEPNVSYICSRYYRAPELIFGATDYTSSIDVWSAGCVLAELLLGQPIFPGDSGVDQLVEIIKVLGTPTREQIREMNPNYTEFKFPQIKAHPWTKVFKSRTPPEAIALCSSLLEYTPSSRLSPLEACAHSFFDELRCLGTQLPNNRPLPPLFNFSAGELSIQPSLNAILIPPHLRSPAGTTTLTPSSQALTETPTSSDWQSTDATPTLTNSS
Chain of Serine/threonine-protein kinase VRK2 (Homo sapiens) (Q86Y07 whole entry): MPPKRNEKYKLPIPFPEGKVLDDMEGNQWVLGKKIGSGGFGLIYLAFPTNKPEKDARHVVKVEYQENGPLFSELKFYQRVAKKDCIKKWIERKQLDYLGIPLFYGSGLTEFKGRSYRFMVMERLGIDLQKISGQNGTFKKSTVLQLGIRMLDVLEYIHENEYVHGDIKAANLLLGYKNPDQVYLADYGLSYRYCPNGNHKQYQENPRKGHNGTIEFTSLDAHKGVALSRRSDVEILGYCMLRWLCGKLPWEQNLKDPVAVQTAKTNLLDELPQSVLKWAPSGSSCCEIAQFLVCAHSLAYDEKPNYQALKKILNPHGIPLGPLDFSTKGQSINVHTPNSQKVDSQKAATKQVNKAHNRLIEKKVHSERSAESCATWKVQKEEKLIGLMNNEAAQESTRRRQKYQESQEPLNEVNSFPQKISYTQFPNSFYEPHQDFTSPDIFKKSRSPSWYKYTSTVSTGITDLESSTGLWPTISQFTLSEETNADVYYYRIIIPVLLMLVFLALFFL
Chain of Beta-3 adrenergic receptor (Homo sapiens) (P13945 whole entry, looked up): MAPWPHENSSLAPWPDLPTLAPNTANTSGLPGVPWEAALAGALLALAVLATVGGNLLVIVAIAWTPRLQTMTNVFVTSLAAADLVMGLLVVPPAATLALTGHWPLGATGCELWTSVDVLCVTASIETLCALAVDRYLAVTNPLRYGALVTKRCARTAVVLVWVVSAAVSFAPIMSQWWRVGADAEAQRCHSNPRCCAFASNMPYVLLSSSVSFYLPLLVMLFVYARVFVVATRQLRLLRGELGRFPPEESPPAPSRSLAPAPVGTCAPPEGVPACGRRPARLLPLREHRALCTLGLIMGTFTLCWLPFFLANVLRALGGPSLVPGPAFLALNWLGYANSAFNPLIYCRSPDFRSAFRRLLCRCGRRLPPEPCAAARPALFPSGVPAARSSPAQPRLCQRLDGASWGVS
Chain of Cyclin-dependent kinase-like 1 (Homo sapiens) (Q00532 whole entry): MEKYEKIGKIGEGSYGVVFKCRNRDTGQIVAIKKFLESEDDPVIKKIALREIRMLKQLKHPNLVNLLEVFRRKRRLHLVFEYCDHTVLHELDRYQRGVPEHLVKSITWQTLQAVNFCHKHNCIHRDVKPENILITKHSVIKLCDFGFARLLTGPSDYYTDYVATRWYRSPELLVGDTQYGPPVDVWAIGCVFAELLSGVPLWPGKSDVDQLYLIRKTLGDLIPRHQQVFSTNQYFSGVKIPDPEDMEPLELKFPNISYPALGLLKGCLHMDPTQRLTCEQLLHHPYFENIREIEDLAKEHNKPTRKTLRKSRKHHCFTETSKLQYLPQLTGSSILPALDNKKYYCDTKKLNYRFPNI
Chain of Ribosomal protein S6 kinase alpha-4 (Homo sapiens) (O75676 whole entry, looked up): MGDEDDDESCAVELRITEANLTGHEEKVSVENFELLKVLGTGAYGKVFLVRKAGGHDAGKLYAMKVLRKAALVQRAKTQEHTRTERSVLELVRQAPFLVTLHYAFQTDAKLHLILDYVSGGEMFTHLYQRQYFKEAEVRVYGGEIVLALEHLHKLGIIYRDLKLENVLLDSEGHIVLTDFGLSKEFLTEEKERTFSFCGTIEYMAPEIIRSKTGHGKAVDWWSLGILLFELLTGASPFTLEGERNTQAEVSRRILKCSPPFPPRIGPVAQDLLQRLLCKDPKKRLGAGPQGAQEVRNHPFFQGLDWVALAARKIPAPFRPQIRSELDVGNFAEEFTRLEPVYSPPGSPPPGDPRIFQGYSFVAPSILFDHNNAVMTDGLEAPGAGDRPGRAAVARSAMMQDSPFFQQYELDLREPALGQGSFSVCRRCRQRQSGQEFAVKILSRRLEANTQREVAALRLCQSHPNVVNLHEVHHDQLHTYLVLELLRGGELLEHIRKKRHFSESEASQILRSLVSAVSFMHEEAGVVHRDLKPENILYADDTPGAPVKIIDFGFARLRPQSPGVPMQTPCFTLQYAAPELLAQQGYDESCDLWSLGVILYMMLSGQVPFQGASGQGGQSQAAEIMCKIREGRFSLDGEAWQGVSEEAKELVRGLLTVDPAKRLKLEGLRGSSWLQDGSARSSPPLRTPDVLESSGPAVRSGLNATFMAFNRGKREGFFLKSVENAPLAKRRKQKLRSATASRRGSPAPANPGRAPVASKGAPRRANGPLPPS
Chain of Uncharacterized serine/threonine-protein kinase SBK3 (Homo sapiens) (P0C264 whole entry): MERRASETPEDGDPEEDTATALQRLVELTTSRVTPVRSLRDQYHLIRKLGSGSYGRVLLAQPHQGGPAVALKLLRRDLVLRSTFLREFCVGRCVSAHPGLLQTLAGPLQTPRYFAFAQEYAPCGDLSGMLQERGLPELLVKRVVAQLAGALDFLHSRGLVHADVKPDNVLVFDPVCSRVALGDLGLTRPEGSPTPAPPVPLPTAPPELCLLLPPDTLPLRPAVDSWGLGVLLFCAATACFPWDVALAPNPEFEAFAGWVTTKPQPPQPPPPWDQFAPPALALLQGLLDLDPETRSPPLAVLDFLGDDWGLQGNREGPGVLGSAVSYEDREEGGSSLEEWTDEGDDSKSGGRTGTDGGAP

Compound `CNCc1ccccc1-c1csc([C@@H](C)Nc2nc(C)nc3cc(OC)c(OC)cc23)c1` [BAY-293] has a residual activity [1] of 95%, a residual activity [2] of 93% and an inhibition [3] of 5.81%. The residual activity [4] was 57%, the residual activity [5] was 100% and the residual activity [6] was 100%. It also gave a residual activity [7] of 63%, a residual activity [8] of 76% and a residual activity [9] of 47%. For the same compound, the residual activity [10] was 99%, the residual activity [11] was 100% and the residual activity [12] was 78%. It also gave a residual activity [13] of 96%, a residual activity [14] of 86% and a residual activity [15] of 86%. The residual activity [16] was 100%, the residual activity [17] was 73% and the residual activity [18] was 100%. It also gave a residual activity [19] of 100%, a residual activity [20] of 100% and a residual activity [21] of 91%. For the same compound, the residual activity [22] was 87%, the residual activity [23] was 100% and the inhibition [24] was 73.7%. For the same compound, the residual activity [25] was 100%, the residual activity [26] was 83% and the residual activity [27] was 100%. It also gave a residual activity [28] of 89%, a residual activity [29] of 91% and a residual activity [30] of 90%. It also gave a residual activity [31] of 76%, a residual activity [32] of 100% and a residual activity [33] of 100%. It also gave a residual activity [34] of 97%, a residual activity [35] of 100% and a residual activity [36] of 57%. The residual activity [37] was 86%, the inhibition [38] was 20% and the residual activity [39] was 100%.
Work on `CNCc1ccccc1-c1csc([C@H](C)Nc2nc(C)nc3cc(OC)c(OC)cc23)c1` [BAY-294] yielded a residual activity [1] of 93%, a residual activity [2] of 100% and an inhibition [3] of 10.8%. For the same compound, the residual activity [4] was 88%, the residual activity [5] was 100% and the residual activity [6] was 100%. The residual activity [7] was 85%, the residual activity [8] was 87% and the residual activity [9] was 87%. It also gave a residual activity [10] of 100%, a residual activity [11] of 87% and a residual activity [12] of 88%. The residual activity [13] was 100%, the residual activity [14] was 91% and the residual activity [15] was 100%. It also gave a residual activity [16] of 100%, a residual activity [17] of 74% and a residual activity [18] of 100%. The residual activity [19] was 100%, the residual activity [20] was 100% and the residual activity [21] was 100%. It also gave a residual activity [22] of 100%, a residual activity [23] of 100% and an inhibition [24] of 71.8%. It also gave a residual activity [25] of 100%, a residual activity [26] of 78% and a residual activity [27] of 99%. For the same compound, the residual activity [28] was 73%, the residual activity [29] was 100% and the residual activity [30] was 100%. For the same compound, the residual activity [31] was 87%, the residual activity [32] was 100% and the residual activity [33] was 100%. The residual activity [34] was 100%, the residual activity [35] was 100% and the residual activity [36] was 51%. It also gave a residual activity [37] of 100%, an inhibition [38] of 38.2% and a residual activity [39] of 87%.
